{
  "source": "ChEMBL document CHEMBL1268964",
  "about": "“CWJ-081, a novel 3-arylisoquinoline derivative, induces apoptosis in human leukemia HL-60 cells partially involves reactive oxygen species through c-Jun NH2-terminal kinase pathway” (Bioorg Med Chem Lett, 2010)",
  "key": {"[1]": {"tested_on": "HL-60", "assay": "Cytotoxicity against human HL60 cells by MTT assay", "format": "functional, cell-based"}, "[2]": {"tested_on": "U-937", "assay": "Cytotoxicity against human U937 cells by MTT assay", "format": "functional, cell-based"}, "[3]": {"tested_on": "K562", "assay": "Cytotoxicity against human K562 cells by MTT assay", "format": "functional, cell-based"}, "[4]": {"tested_on": "HeLa", "assay": "Cytotoxicity against human HeLa cells by MTT assay", "format": "functional, cell-based"}, "[5]": {"tested_on": "Ca-Ski", "assay": "Cytotoxicity against human CaSki cells by MTT assay", "format": "functional, cell-based"}, "[6]": {"assay": "Cytotoxicity against human Chang cells by MTT assay", "format": "cell-based"}, "[7]": {"assay": "Cytotoxicity against human L-132 cells by MTT assay", "format": "cell-based", "settings": "L132"}, "[8]": {"assay": "Cytotoxicity against human IOSE-80PC cells by MTT assay", "format": "cell-based"}, "[9]": {"tested_on": "HL-60", "assay": "Induction of apoptosis in human HL60 cells assessed as early apoptotic cells at 10 uM by Annexin V staining", "format": "functional, cell-based", "settings": "TDE = time-dependent effect"}, "[10]": {"tested_on": "U-937", "assay": "Induction of apoptosis in human U937 cells assessed as early apoptotic cells at 10 uM by Annexin V staining", "format": "functional, cell-based", "settings": "TDE = time-dependent effect"}, "[11]": {"tested_on": "K562", "assay": "Induction of apoptosis in human K562 cells assessed as early apoptotic cells at 10 uM by Annexin V staining", "format": "functional, cell-based", "settings": "TDE = time-dependent effect"}, "[12]": {"tested_on": "HL-60", "assay": "Induction of apoptosis in human HL60 cells assessed as intercucleosomal DNA fragmentation at 10 uM by […] staining by flow cytometry", "format": "functional, cell-based", "settings": "TDE = time-dependent effect"}, "[13]": {"tested_on": "U-937", "assay": "Induction of apoptosis in human U937 cells assessed as intercucleosomal DNA fragmentation at 10 uM by […] staining by flow cytometry", "format": "functional, cell-based", "settings": "TDE = time-dependent effect"}, "[14]": {"tested_on": "K562", "assay": "Induction of apoptosis in human K562 cells assessed as intercucleosomal DNA fragmentation at 10 uM by […] staining by flow cytometry", "format": "functional, cell-based", "settings": "TDE = time-dependent effect"}, "[15]": {"tested_on": "HL-60", "assay": "Induction of apoptosis in human HL60 cells assessed as procaspase 8 cleavage at 10 uM after 36 hrs by Western blot analysis", "format": "functional, cell-based"}, "[16]": {"tested_on": "HL-60", "assay": "Induction of apoptosis in human HL60 cells assessed as procaspase 9 cleavage at 10 uM after 36 hrs by Western blot analysis", "format": "functional, cell-based"}, "[17]": {"tested_on": "HL-60", "assay": "Induction of apoptosis in human HL60 cells assessed as procaspase 3 cleavage at 10 uM after 36 hrs by Western blot analysis", "format": "functional, cell-based"}, "[18]": {"tested_on": "HL-60", "assay": "Induction of apoptosis in human HL60 cells assessed as PARP-1 at 10 uM after 36 hrs by Western blot analysis", "format": "functional, cell-based"}, "[19]": {"tested_on": "HL-60", "assay": "Induction of apoptosis in human HL60 cells assessed as loss of mitochondrial membrane potential at 50 uM after 24 hrs by DiOC6 staining", "format": "functional, cell-based"}, "[20]": {"tested_on": "HL-60", "assay": "Induction of apoptosis in human HL60 cells assessed as Bax protein expression at 10 uM after 12 hrs by Western blot analysis", "format": "functional, cell-based"}, "[21]": {"tested_on": "HL-60", "assay": "Induction of apoptosis in human HL60 cells assessed as Bcl-2 protein expression at 10 uM after 12 hrs by Western blot analysis", "format": "functional, cell-based"}, "[22]": {"tested_on": "HL-60", "assay": "Induction of apoptosis in human HL60 cells assessed as cytochrome c release from mitochondria at 10 uM after 12 hrs by Western blot analysis", "format": "functional, cell-based"}, "[23]": {"tested_on": "HL-60", "assay": "Induction of apoptosis in human HL60 cells assessed as cytochrome c release from mitochondria at 10 uM after 24 hrs by Western blot analysis", "format": "functional, cell-based"}, "[24]": {"tested_on": "HL-60", "assay": "Induction of apoptosis in human HL60 cells assessed as Bcl-2 family expression at 10 uM by Western blot analysis", "format": "functional, cell-based", "settings": "TDE = time-dependent effect"}, "[25]": {"tested_on": "HL-60", "assay": "Induction of apoptosis in human HL60 cells assessed as increase in ROS production", "format": "functional, cell-based", "settings": "TDE = time-dependent effect"}, "[26]": {"tested_on": "HL-60", "assay": "Induction of apoptosis in human HL60 cells assessed as increase in ROS production in presence of 10 mM NAC", "format": "functional, cell-based"}, "[27]": {"tested_on": "HL-60", "assay": "Induction of apoptosis in NAC pretreated human HL60 cells assessed as increase in ROS production", "format": "functional, cell-based"}, "[28]": {"tested_on": "HL-60", "assay": "Induction of apoptosis in human HL60 cells assessed as increase in JNK phosphorylation level at 6 hrs", "format": "functional, cell-based"}, "[29]": {"tested_on": "HL-60", "assay": "Induction of apoptosis in human HL60 cells assessed as increase in JNK phosphorylation level at 12 hrs", "format": "functional, cell-based"}, "[30]": {"tested_on": "HL-60", "assay": "Induction of apoptosis in human HL60 cells in presence of 10 uM SP600125 JNK inhibitor", "format": "functional, cell-based"}, "[31]": {"tested_on": "HL-60", "assay": "Induction of apoptosis in NAC pretreated human HL60 cells assessed as increase in JNK phosphorylation level", "format": "functional, cell-based"}},
  "note": "pIC50: −log10 of the molar value. The source made the active and inactive calls. The rule behind the calls is not given here.",
  "data": [
    {"smiles": "CCc1cc2c(cc1-c1cc3ccc(OC)c(OC)c3c(=O)n1C)OCO2", "values": [
      {"measurement": "pIC50", "setting": "[1]", "value": 5.25},
      {"measurement": "pIC50", "setting": "[2]", "value": 4.48},
      {"measurement": "pIC50", "setting": "[3]", "value": 4.42},
      {"measurement": "pIC50", "setting": "[4]", "value": 4.37},
      {"measurement": "pIC50", "setting": "[5]", "value": 4.32},
      {"measurement": "pIC50", "setting": "[6]", "value": 4.40},
      {"measurement": "pIC50", "setting": "[7]", "value": 4.23},
      {"measurement": "pIC50", "setting": "[8]", "value": 4.17},
      {"measurement": "Activity", "setting": "[9]", "value": "tde"},
      {"measurement": "Activity", "setting": "[10]", "value": "tde"},
      {"measurement": "Activity", "setting": "[11]", "value": "tde"},
      {"measurement": "Activity", "setting": "[12]", "value": "tde"},
      {"measurement": "Activity", "setting": "[13]", "value": "tde"},
      {"measurement": "Activity", "setting": "[14]", "value": "tde"},
      {"measurement": "Activity", "setting": "[15]", "value": "Active"},
      {"measurement": "Activity", "setting": "[16]", "value": "Active"},
      {"measurement": "Activity", "setting": "[17]", "value": "Active"},
      {"measurement": "Activity", "setting": "[18]", "value": "Active"},
      {"measurement": "Activity", "setting": "[19]", "value": "Active"},
      {"measurement": "Activity", "setting": "[20]", "value": "Active"},
      {"measurement": "Activity", "setting": "[21]", "value": "Active"},
      {"measurement": "Activity", "setting": "[22]", "value": "Active"},
      {"measurement": "Activity", "setting": "[23]", "value": "Active"},
      {"measurement": "Activity", "setting": "[24]", "value": "tde"},
      {"measurement": "Activity", "setting": "[25]", "value": "tde"},
      {"measurement": "Activity", "setting": "[26]", "value": "inactive"},
      {"measurement": "Activity", "setting": "[27]", "value": "inactive"},
      {"measurement": "Activity", "setting": "[28]", "value": "Active"},
      {"measurement": "Activity", "setting": "[29]", "value": "inactive"},
      {"measurement": "Activity", "setting": "[30]", "value": "Active"},
      {"measurement": "Activity", "setting": "[31]", "value": "inactive"}
    ]}
  ]
}
